Reference: ChEMBL document CHEMBL1201862, “PubChem BioAssay data set” (2004)
Calls of active or inactive are those of the source.

Legend:
[1] = target: Protein Wnt-3a (Mus musculus, UniProt P27467); assay: SAR analysis of small molecule antagonists of Gli-SUFU in a Wnt3a luminescent reporter assay.; type: functional
[2] = target: T1, Methionyl-tRNA synthetase, putative (Trypanosoma brucei brucei, UniProt Q38C91); type: functional, Trypanosoma brucei brucei strain 927/4 GUTat10.1
T1 sequence (Q38C91 whole entry): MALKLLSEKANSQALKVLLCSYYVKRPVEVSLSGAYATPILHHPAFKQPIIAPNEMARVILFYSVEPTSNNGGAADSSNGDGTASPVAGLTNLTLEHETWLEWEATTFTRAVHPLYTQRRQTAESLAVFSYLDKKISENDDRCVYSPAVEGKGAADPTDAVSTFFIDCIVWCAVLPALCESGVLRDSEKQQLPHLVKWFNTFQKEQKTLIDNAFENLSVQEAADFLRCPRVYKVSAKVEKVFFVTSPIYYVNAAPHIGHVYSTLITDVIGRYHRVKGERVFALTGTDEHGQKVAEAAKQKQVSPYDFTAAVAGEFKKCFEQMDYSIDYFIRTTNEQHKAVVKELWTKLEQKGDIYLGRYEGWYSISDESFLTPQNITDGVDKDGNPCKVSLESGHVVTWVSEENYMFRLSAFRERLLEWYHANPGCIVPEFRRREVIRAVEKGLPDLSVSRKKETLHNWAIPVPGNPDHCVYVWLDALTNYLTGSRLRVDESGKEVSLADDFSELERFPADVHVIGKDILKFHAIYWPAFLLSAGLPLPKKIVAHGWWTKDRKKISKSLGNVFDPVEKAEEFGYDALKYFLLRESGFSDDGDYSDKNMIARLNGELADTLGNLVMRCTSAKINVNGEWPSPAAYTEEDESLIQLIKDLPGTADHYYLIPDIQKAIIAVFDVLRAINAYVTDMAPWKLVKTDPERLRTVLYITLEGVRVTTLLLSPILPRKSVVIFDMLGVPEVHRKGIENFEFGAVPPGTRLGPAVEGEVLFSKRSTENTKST

[3] = target: T1, Methionyl-tRNA synthetase, putative; type: functional, Trypanosoma brucei brucei strain 927/4 GUTat10.1; remark: listed apart in the source
[4] = Counterscreen for inhibitors of Trypanosoma brucei methionyl tRNA synthetase (MetRS): Luminescence-based cell-based high throughput dose response assay to identify compounds that are cytotoxic to Jurkat human T lymphocyte cells.; type: functional
[5] = Late stage counterscreen for inhibitors of Trypanosoma brucei methionyl tRNA synthetase (MetRS): Luminescence-based cell-based high throughput dose response assay to identify compounds that are cytotoxic to Jurkat human T lymphocyte cells.; type: functional
[6] = A2780 ovarian cancer cell cytotoxicity, dose response, cytotoxicity control, plate reader, dry powder samples (AID 743046); type: functional, cell-based
[7] = target: Paired box protein Pax-8 (Homo sapiens, UniProt Q06710); assay: inhibitors of PAX8-driven TPO luciferase reporter, dose response, RMG-I cells, cherry-pick (AID 687027); type: functional, cell-based;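 also: luciferase reporter driven by Pax8 target thyroperoxidase promoter measured by SteadyGlo luminescence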
[8] = cytotoxicity in OVCAR8 ovarian cancer cells, dose response, PAX8 project, cell-based, plate reader, dry powder samples (AID 743197); type: functional; details: OVCAR-8
[9] = HepG2 cell cytotoxicity, dose response, cytotoxicity control, CellTiter-Glo luminescence, cherry-pick, set 2 (AID 743395); type: functional
[10] = miR-122 activators in hepatoma reporter cells, dose response, cell-based, Huh7 psiCHECK-miR122, Renilla luciferase, cherry-picked (AID 651956); type: functional;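 also: huh7 hepatoma cells stably carrying a psiCHECK-2 miR-122 sensor plasmid; renilla luciferase signal reporting endogenous miR-122 activity after 48 h compound exposure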
[11] = HEK293T cytotoxicity, dose response, cytotoxicity control for miR-122 modulator project, cell-based, activator set, cherry-pick (AID 720690); type: functional;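 also: HEK293T human cells scored for general mammalian cytotoxicity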
[12] = inhibitors of TNFa-stimulated NF-kB luciferase reporter, dose response, selectivity assay for EBV LMP1 NF-kB inhibitor project, HEK293 LMP1 reporter cells, dry powder, set 2 (AID 624369); type: functional
[13] = inhibitors of LMP1-driven NF-kB reporter, dose response, cell-based, EBV LMP1, luciferase, dry powder, set 2 (AID 624361); type: functional
[14] = system: A549; assay: A549 cell toxicity, dose response, cytotoxicity control, plate reader, cherry-pick samples (AID 687028); type: functional, cell-based; details: Homo sapiens
[15] = target: Major prion protein (Homo sapiens, UniProt P04156); type: functional, cell-based
[16] = cells
[17] = system: HeLa; assay: HeLa cell cytotoxicity, dose response, cytotoxicity control, ATP luminescence, cherry-pick samples (AID 687004); type: functional, cell-based; details: Homo sapiens
[18] = HEK293 Cytotoxicity Assay Measured in Cell-Based System Using Plate Reader - 7071-01_Inhibitor_Dose_CherryPick_Activity_Set2.; type: functional
[19] = system: HEK293; assay: HEK293T cell cytotoxicity, dose response, cytotoxicity control, ATP luminescence, cherry-pick samples (AID 687005); type: functional, cell-based; details: Homo sapiens;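 also: cells exposed to compound for 48 hours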
[20] = inhibitors of fibronectin matrix deposition, dose response, AH1F cells, Alexa488-FN fluorescence, cherry-picks (AID 1035475); type: functional, cell-based
[21] = HEK293 cell cytotoxicity, dose response, cytotoxicity control, cherry-picks, set 5 (AID 1053117); type: functional, cell-based
[22] = target: Nonstructural protein 1 (Influenza A virus, UniProt Q194T2); type: functional, Influenza A virus (A/California/07/2009(H1N1))
[23] = target: Eukaryotic translation initiation factor 4H (Homo sapiens, UniProt Q15056); assay: human eIF4H binding inhibitors, primary screen, translation initiation inhibitor project, biochemical, uHTS, fluorescence polarization (AID 2012)
[24] = target: Genome polyprotein (dengue virus type 2, UniProt P29990); assay: Dengue-2 NS5 methyltransferase inhibitors, primary screen, biochemical, confirmation dose response (AID 588689); type: functional
[25] = target: T2, Protein skinhead-1 (Caenorhabditis elegans, UniProt P34707); type: functional
T2 sequence (P34707 whole entry): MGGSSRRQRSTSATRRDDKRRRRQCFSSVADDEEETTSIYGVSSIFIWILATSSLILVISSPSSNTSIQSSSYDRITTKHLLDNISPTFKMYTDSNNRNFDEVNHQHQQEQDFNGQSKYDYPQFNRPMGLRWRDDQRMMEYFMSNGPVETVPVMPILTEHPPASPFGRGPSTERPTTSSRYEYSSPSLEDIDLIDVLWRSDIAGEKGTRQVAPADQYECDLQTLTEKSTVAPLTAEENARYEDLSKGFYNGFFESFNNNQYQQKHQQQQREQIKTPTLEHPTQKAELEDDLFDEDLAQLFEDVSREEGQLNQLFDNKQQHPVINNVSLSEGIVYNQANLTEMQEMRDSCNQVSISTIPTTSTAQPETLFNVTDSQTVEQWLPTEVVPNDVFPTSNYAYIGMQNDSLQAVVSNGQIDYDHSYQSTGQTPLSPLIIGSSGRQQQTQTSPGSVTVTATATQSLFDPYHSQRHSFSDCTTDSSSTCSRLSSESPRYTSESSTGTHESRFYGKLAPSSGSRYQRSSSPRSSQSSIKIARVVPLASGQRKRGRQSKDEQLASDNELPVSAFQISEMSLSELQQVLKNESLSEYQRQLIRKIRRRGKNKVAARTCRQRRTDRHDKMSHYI

[26] = target: T3, Rac GTPase-activating protein 1 (Homo sapiens, UniProt Q9H0H5); assay: MgcRacGAP GTPase-activating activity inhibitors, confirmation, biochemical, ADP Hunter fluorescence, primary and confirmatory (AID 624330); type: functional
T3 sequence (Q9H0H5 whole entry): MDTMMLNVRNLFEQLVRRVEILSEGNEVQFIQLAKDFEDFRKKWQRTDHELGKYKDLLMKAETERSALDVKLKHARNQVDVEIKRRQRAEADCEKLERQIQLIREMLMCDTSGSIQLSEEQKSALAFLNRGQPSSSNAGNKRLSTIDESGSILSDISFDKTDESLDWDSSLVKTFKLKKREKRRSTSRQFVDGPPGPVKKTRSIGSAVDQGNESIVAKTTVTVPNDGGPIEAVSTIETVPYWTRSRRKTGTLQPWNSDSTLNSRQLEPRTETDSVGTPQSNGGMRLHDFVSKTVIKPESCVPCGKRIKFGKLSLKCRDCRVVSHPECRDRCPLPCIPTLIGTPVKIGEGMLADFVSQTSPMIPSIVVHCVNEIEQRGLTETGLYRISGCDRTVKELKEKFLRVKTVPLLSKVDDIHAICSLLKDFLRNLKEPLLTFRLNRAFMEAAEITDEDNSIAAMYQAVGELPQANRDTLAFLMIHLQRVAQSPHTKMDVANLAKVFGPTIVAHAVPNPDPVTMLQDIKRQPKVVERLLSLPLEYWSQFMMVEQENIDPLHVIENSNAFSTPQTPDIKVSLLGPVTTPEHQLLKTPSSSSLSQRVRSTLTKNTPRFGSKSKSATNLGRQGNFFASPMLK

[27] = target: Polyadenylate-binding protein 1 (Homo sapiens, UniProt P11940); assay: PABP poly(A) RNA binding inhibitors, primary screen, biochemical, fluorescence polarization, uHTS (AID 2014)
[28] = target: Matrix metalloproteinase-14 (Homo sapiens, UniProt P50281); assay: Dose Response confirmation of uHTS hits for a small molecule inhibitors of MT1-MMP activation in a fluorescence assay set 1.; type: functional
[29] = HeLa cell cytotoxicity, dose response, cytotoxicity control for MgcRacGAP inhibitor project (AID 624300); type: functional
[30] = P. falciparum Dd2 growth inhibitors, dose response, SYBR Green, cherry-picked samples (AID 1159567); type: functional, cell-based
[31] = NIH:OVCAR-3 ovarian cancer cell cytotoxicity, dose response, PAX8 inhibitor project, plate reader, dry powder samples (AID 743044); type: functional, cell-based
[32] = non-specific cell cytotoxicity, dose response, cytotoxicity control for PAX8 inhibitor project, plate reader, dry powder samples (AID 743021); type: functional, cell-based
[33] = IOSE-T80 ovarian epithelial cell cytotoxicity, dose response, cytotoxicity control for PAX8 inhibitor project, plate reader, dry powder samples (AID 743045); type: functional, cell-based
[34] = IGROV1 ovarian cancer cell cytotoxicity, dose response, PAX8 inhibitor project, plate reader, dry powder samples (AID 743043); type: functional, cell-based; details: IGROV-1
[35] = inhibitors of PGC1a acetylation in cells, dose response, cell-based, cherry-picked samples (AID 720514); type: functional;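 also: potency may reflect raised or lowered acetylation signal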
[36] = HepG2 cell cytotoxicity, dose response, cytotoxicity control, cherry-picked samples (AID 1159577); type: functional, cell-based
[37] = target: Tyrosyl-DNA phosphodiesterase 2 (Homo sapiens, UniProt O95551); assay: human TDP2 enzyme inhibitors, dose response, biochemical, epi absorbance, IC50 (AID 743297)
[38] = target: Histone-lysine N-methyltransferase NSD2 (Homo sapiens, UniProt O96028); type: biochemical
[39] = HepG2 cell cytotoxicity, dose response, cytotoxicity control, cherry-picks, set 5 (AID 1053118); type: functional, cell-based
[40] = HEK293T cytotoxicity, dose response, cytotoxicity control for miR-122 modulator project, cell-based, inhibitor set, cherry-pick, set 2 (AID 720697); type: functional

CN(C)c1cc(NC(=O)c2ccccc2F)ncn1
IC50 [1]: > 21.8 µM (inactive)

O=C(NCc1nc2ccccc2[nH]1)C1=C[C@@H](c2ccccc2)C[C@@H](OCc2ccc(CO)cc2)O1
IC50 [2]: 0.835 µM (active) | IC50 [3]: 2.08 µM (active) | IC50 [4]: 81 µM (inactive) | IC50 [5]: > 83.3 µM (inactive)

C[C@H](CO)N1C[C@H](C)[C@@H](CN(C)Cc2ccc(Cl)c(Cl)c2)OCCCC[C@H](C)Oc2ccc(NS(=O)(=O)c3ccc(Cl)cc3)cc2C1=O
AC50 [6]: 4.46 µM (active) | AC50 [7]: 11.5 µM (active) | AC50 [8]: > 70 µM (inactive)

COc1cc(NC(=O)c2csc(N)n2)cc(C(=O)Nc2cccc(C(F)(F)F)c2)c1.O=C(O)C(F)(F)F
AbsAC35_uM [9]: 51.31 µM

CCC(=O)N(C)C[C@H]1Oc2cc(C#Cc3ccccc3)ccc2S(=O)(=O)N([C@H](C)CO)C[C@H]1C
AC50 [10]: 10.1 µM (active) | AC50 [11]: 30.6 µM (active)

Cc1cc(C(=O)Nc2ccc3c(c2)C(=O)N(C)[C@H]2CC[C@H](CC(=O)NCc4ccc(-c5ccccc5)cc4)O[C@H]2CO3)no1
AbsAC35 [12]: 62.14 µM | AbsAC35 [13]: 37.95 µM

C[C@H](CO)N1C[C@H](C)[C@@H](CN(C)C(=O)Nc2ccc(C(F)(F)F)cc2)OCCCC[C@H](C)Oc2ccc(NC(=O)C3CCCCC3)cc2C1=O
AC50 [14]: 30.5 µM (active)

Fc1cccc2sc(Nc3nc4c(F)cccc4s3)nc12
IC50 [15]: 8.31 µM (active) | IC50 [16]: > 138 µM (inactive)

C[C@@H]1CN([C@@H](C)CO)S(=O)(=O)c2ccc(-c3ccccc3)cc2O[C@H]1CN(C)C(=O)C1CCCCC1
AC50 [17]: > 52 µM (inactive) | AC50 [18]: 15.4 µM (active) | AC50 [19]: 15.4 µM (active)

CN1c2ccc(-c3ccccc3)cc2[C@H]2[C@H](CCN2C(=O)CN2CCOCC2)[C@@H]1CO
AC50 [20]: > 70 µM (inactive) | AC50 [21]: > 52 µM (inactive)

CC1=C/C(=C(/c2cc(C)c(O)c(Br)c2)c2ccccc2S(=O)(=O)O)C=C(Br)C1=O
IC50 [22]: 16.3 µM (active) | IC50 [23]: 8.28 µM (active) | IC50 [24]: 38 µM (active) | IC50 [25]: 34.3 µM (active) | IC50 [26]: 63.5 µM (active) | IC50 [27]: 6.81 µM (active) | IC50 [28]: 18.5 µM (active) | CC50 [29]: 100 µM (active)

Cc1cccc(-c2ccc([C@H]3[C@@H]4CN(C(=O)Nc5ccc(C(F)(F)F)cc5)C[C@H]3N4)cc2)c1
AC50 [30]: 3.28 µM (active) | AC50 [7]: 8.8 µM (active) | AC50 [31]: 18.8 µM (active) | AC50 [32]: 22.9 µM (active) | AC50 [33]: 17 µM (active) | AC50 [8]: 25.6 µM (active) | AC50 [34]: 33.2 µM (active) | AC50 [35]: 4.51 µM (active) | AC50 [36]: 9.26 µM (active)

O=C1C=C(O)c2nc(O)ccc2C1=O
IC50 [37]: 80 µM (inactive) | AC50 [38]: 13.1 µM (active)

CO[C@@H]1CN(C)C(=O)c2ccc(NC(=O)c3ccc(-c4ccccc4)cc3)cc2OC[C@@H](C)NC[C@@H]1C
AC50 [39]: > 52 µM (inactive) | AC50 [30]: 3.9 µM (active) | AC50 [36]: 11.9 µM (active)

CN(C)C(=O)C[C@@H]1CC[C@@H]2[C@@H](COc3ccc(NC(=O)C4CC4)cc3C(=O)N2C)O1
AC50 [40]: 9.22 µM (active)
